Results on 10 molecules are retold here after patent publication US12343429B2, “Method of delivery of DNA or RNA cargo unshielded lipid nanoparticles and compositions thereof” (NanoVation Therapeutics Inc., priority 2023, dated 2025).

Data set [1] in a line: LNP formulability and stability through dialysis, concentration and storage. The data set is classed as physicochemical. To be noted: for behaviour in dialysis: PEG-less mRNA-LNP 1/structural lipid/cholesterol 27.4/50/22.6, unmodified method; for viability of LNPs, modified method with 25 mM sodium acetate dilution: all ratios of LNP:NaOAc (v:v); for physiochemical properties/stability, modified method with 1× PBS dilution after T-mixing: all ratios of LNP:PBS tested, after dialysis and after concentration to >0.25 mg/mL and overnight storage; for ability to be formulated in PEG-less mRNA-LNPs: unmodified ethanol mixing method, ionizable lipid/DSPC/chol 27.4/50/22.6, N/P 9 (FIG. 6); for behaviour after dialysis and concentration/storage: PEG-less mRNA-LNP, unmodified method, 27.4/50/22.6; for physiochemical characteristics, modified method with 25 mM sodium acetate dilution: 1:2-1:3 volume ratio. How it is done: Unless otherwise specified, the LNPs were prepared by dissolving mRNA or plasmid DNA (pDNA) in 25 mM sodium acetate, pH 4.0, while the lipid components at the mole % specified were dissolved in absolute ethanol. The lipids in ethanol and the nucleic acid cargo in buffer were combined in a 1:3 volume by volume ratio using a t-junction with dual-syringe pump. The solutions were pushed through the t-junction at a combined flow rate of 20 mL/min (5 mL/minute for the lipid-containing syringe, 15 mL/minute for the mRNA-containing syringe). The mixture was subsequently dialyzed overnight against at least ˜100 volumes of 1× phosphate buffered saline (PBS), pH 7.4 using Spectro/Por™ dialysis membranes (molecular weight cut-off 12 000-14 000 Da). The LNPs were concentrated as required with an Amicon Ultra™ 100 000 MWCO (molecular weight cut-off), regenerated cellulose concentrator.
After T-mixing, 1× phosphate buffered saline (PBS) or other buffer as indicated, was added to the formulation mixture in increasing ratios of LNP: 1× buffer prior to dialysis and gently mixed, followed by transfer to dialysis in 1×PBS (or other suitable buffer as indicated) followed by processing as usual.
After the T-mixing (see Materials and Methods above), 1× phosphate buffered saline (PBS) was added to the formulation mixture in increasing volume ratios of LNP: 1× PBS (as indicated in FIGS. 7A-F) prior to dialysis followed by gentle mixing and transfer of the mixture to a dialysis bag in 1×PBS overnight followed by processing as usual. […] Physiochemical characteristics (particle size, PDI and encapsulation %) were measured after dialysis and after dialysis and concentration of the LNPs to >0.25 mg/mL and overnight storage.

Data set [2] in a line: Encapsulation efficiency (RiboGreen), particle size and PDI (Zetasizer Nano ZS) of LNPs. The data set is classed as physicochemical. Conditions: PEG-less mRNA-LNP, unmodified method, 27.4/50/22.6 (FIG. 6). How it is done:
Encapsulation efficiency was calculated by determining unencapsulated mRNA content by measuring the fluorescence upon the addition of RiboGreen™ to the mRNA-LNP (Fi) and comparing this value to the total mRNA content that is obtained upon lysis of the LNP by 2% Triton X-100 (Ft): % encapsulation=(Ft−Fi)/Ft×100.
The particle size and polydispersity index (PDI) were characterized using a Zetasizer Nano ZS™.

The mark [3] stands for this setting: buffer-to-LNP ratio as low as 1:1 (v:v).
Where [4] appears, read: dilution ratios below 1:1 (v:v).

Each structure is given as a SMILES string.

As for `CCCCCCCCCCCCCC(=O)OC[C@H](COP(=O)([O-])OCC[N+](C)(C)C)OC(=O)CCCCCCCCCCCCC` [DMPC, dimyristoylphosphatidylcholine], the “physiochemical characteristics after concentration/storage” value in data set [1] (12/DMPC/cholesterol 27.4/50/22.6, unmodified method (FIG. 13)) is on record as “deteriorated after concentration/storage”. The “physiochemical characteristics / behaviour upon dialysis” value in data set [1] (PEG-less LNP with 12 as ionizable lipid, helper lipid screen, unmodified method (FIG. 13)) was “less ideal physiochemical characteristics”.

On to `CCCCCCCC/C=C\CCCCCCCC(=O)OC[C@H](COP(=O)([O-])OCC[N+](C)(C)C)OC(=O)CCCCCCC/C=C\CCCCCCCC` [DOPC, dioleoylphosphatidylcholine], for which the behaviour in dialysis result in data set [1] was “agglomerated in dialysis”.

With `CCCCCCCC/C=C\CCCCCCCC(=O)OC[C@H](COP(=O)(O)OCCN)OC(=O)CCCCCCC/C=C\CCCCCCCC` [DOPE, dioleoylphosphatidylethanolamine], the behaviour in dialysis entry in data set [1] was “agglomerated in dialysis”.

Take `CCCCCCCCCCCCCCCCCC(=O)OC[C@H](COP(=O)([O-])OCC[N+](C)(C)C)OC(=O)CCCCCCCCCCCCCCCCC` [DSPC, distearoylphosphatidylcholine]: the “change in physiochemical characteristics after concentration and refrigerated storage” value in data set [1] (PEG-less mRNA-LNP 1/structural lipid/cholesterol 27.4/50/22.6, unmodified method (FIGS. 12A, 12B)) is listed as “no change”.

In the case of `CCCCCCCCC(=O)OC(CCCCCC(CCCCCC(CSC1CCCCC1)OC(=O)CCCCCCCC)OC(=O)CCCN(C)C)CSC1CCCCC1` (stereo not drawn) [Ionizable lipid 1], in data set [1], the “viability of LNPs, modified method with 25 mM sodium acetate dilution” value is recorded as “viable LNPs”; the “physiochemical properties/stability, modified method with 1× PBS dilution after T-mixing” value is on record as “acceptable physiochemical properties”; the “ability to be formulated in PEG-less mRNA-LNPs” value (“ability to be formulated” below) was “capable of being formulated”.

Consider `CCCCCCCCCC(=O)OC(CCCCC1(CCCCC(CSC2CCCCC2)OC(=O)CCCCCCCCC)OCC(CCN(C)C)O1)CSC1CCCCC1` (stereo not drawn) [Ionizable lipid 12], for which, in data set [2], the PDI result is recorded as “high” and the encapsulation efficiency entry is reported as “low”. Moreover, in data set [1], the “behaviour after dialysis and concentration/storage” value is “agglomerate after dialysis or were not stable after concentration/storage”; the “viability of LNPs, modified method with 25 mM sodium acetate dilution” value is listed as “viable PEG-less LNPs”; the “ability to be formulated” value is reported as “undesirable physiochemical characteristics”. Moreover, the “stability, modified method with 1× PBS dilution” value in data set [1] (less than 1× volume of 1×PBS (1:0.25, 1:0.5, undiluted)) is listed as “agglomerated upon dialysis”. Moreover, the “stability, modified method with 1× PBS dilution” value in data set [1] (ratios of at least 1:1 (v:v) addition of 1×PBS) is “stable after concentration and overnight storage”.

For `CCCCCCCC(=O)OC(CCCCCC)CSCCCCCC(CCCCCSCC(CCCCCC)OC(=O)CCCCCCC)N(C)CCCCO` (stereo not drawn) [Ionizable lipid 15], in data set [2], the PDI entry is reported as “high” and the encapsulation efficiency entry is listed as “low”. Moreover, in data set [1], the “physiochemical characteristics, modified method with 25 mM sodium acetate dilution” value is reported as “ideal physiochemical characteristics”; the “behaviour after dialysis and concentration/storage” value is listed as “agglomerate after dialysis or were not stable after concentration/storage”; the “physiochemical properties/stability, modified method with 1× PBS dilution after T-mixing” value is “agglomerated in dialysis”; the “ability to be formulated” value is reported as “undesirable physiochemical characteristics”. Besides, the “stability, modified method with 25 mM sodium acetate dilution” value in data set [1] (setting [3]) is listed as “stable PEG-less lcLNP compositions”. For the same molecule, in data set [1] (setting [4]), the “stability, modified method with 25 mM sodium acetate dilution” value is listed as “agglomerated in dialysis”.

For `CCCCCCC(CSCCCCCC(CCCCCSCC(CCCCCC)OC(=O)CCC1CCCCC1)N(C)CCCCO)OC(=O)CCC1CCCCC1` (stereo not drawn) [Ionizable lipid 16], in data set [2], the PDI entry is given as “high” and the encapsulation efficiency entry is listed as “low”. Also, the “stability, modified method with 1× PBS dilution” value in data set [1] (1:2 (v:v) dilution) was “stable particles which did not agglomerate in dialysis”. Also, in data set [1], the “physiochemical characteristics, modified method with 25 mM sodium acetate dilution” value is recorded as “ideal physiochemical characteristics”; the “behaviour after dialysis and concentration/storage” value is “agglomerate after dialysis or were not stable after concentration/storage”; the “ability to be formulated” value is on record as “undesirable physiochemical characteristics”. Also, the “stability, modified method with 25 mM sodium acetate dilution” value in data set [1] (setting [3]) is on record as “stable PEG-less lcLNP compositions”. Also, in data set [1] (setting [4]), the “stability, modified method with 25 mM sodium acetate dilution” value is “agglomerated in dialysis”.

Turning to `CCCCCCCCC(CCCCCC)C(=O)OCCCCCC(CCCCCSCC(CCCCCC)OC(=O)CCC1CCCCC1)N(C)CCCCO` (stereo not drawn) [Ionizable lipid 17], in data set [2], the PDI entry was “high” and the encapsulation efficiency result was “low”. For the same molecule, in data set [1], the “behaviour after dialysis and concentration/storage” value is “agglomerate after dialysis or were not stable after concentration/storage”; the “ability to be formulated” value is “undesirable physiochemical characteristics”.

In the case of `CCCCCCCCCCCOC(=O)CCCCCN(CCO)CCCCCCCC(=O)OC(CCCCCCCC)CCCCCCCC` [Ionizable lipid 21], the “ability to be formulated” value in data set [1] was “capable of being formulated”.
